For orientation: IC50 means the concentration that gives 50% inhibition. The low end stands for inhibition by little substance, the high end for a need for much substance. The ED50 is the dose that gives a 50% effect, or the effect in half of the subjects.

Among the data in ChEMBL document CHEMBL1132526, “Spiro-imidazo[1,2-a]indeno[1,2-e]pyrazine-4-one derivatives are mixed AMPA and NMDA glycine-site antagonists active in vivo” (Bioorg Med Chem Lett, 1999) are IC50 and ED50 values, retold here.

For experiment [1], the target named is T1, Glutamate receptor ionotropic, AMPA (Rattus norvegicus, UniProt P19490+P19491+P19492+P19493). The experiment is described as follows: In vitro binding affinity towards ionotropic glutamate receptor AMPA using [3H]AMPA as radioligand in rat cortical membrane preparations. It counts as cell membranes.
The target of experiment [2] is Glutamate NMDA receptor. The experiment is described as follows: In vitro binding affinity towards glycine modulatory site on the NMDA receptors using [3H]DCKA as radioligand in rat cortical membrane preparations. It counts as cell membranes.
Experiment [3] relates to Mus musculus. Description: In vivo activity determined by Maximum electroshock induced seizures (MES) assay in mice after ip administration. Type of experiment: functional.
The target in experiment [4] is T1, Glutamate receptor ionotropic, AMPA. The experiment is described as follows: In vitro binding affinity towards Ionotropic glutamate receptor AMPA using [3H]AMPA as radioligand in rat cortical membrane preparations. It counts as cell membranes.
Experiment [5] concerns Mus musculus. The experiment is described as follows: In vivo activity determined by Maximum electroshock induced seizures (MES) assay in mice after iv administration. It counts as functional.
The mark [6] stands for this setting: Mus musculus, ip, read-out: ED50.

For `CNC1(C)c2ccccc2-c2nc(O)c3nccn3c21` (configuration not stated), the values for the IC50 in experiment [1] and in experiment [2] were 3.4 µM and 2.74 µM, respectively.

Regarding `Oc1nc2c(n3ccnc13)Cc1ccccc1-2`, the IC50 in experiment [1] worked out at 0.76 µM; in experiment [2], 3 µM. Further, in experiment [3] (setting [6]), the ED50 turned out to be 62 mg/kg.

On to `CC1(N)c2ccccc2-c2nc(O)c3nccn3c21` (configuration not stated), for which the IC50 amounted to 2.5 µM in experiment [1] and 1.4 µM in experiment [2]. Further, the ED50 in experiment [3] (setting [6]) is 30 mg/kg.

In the case of `Oc1nc2c(n3ccnc13)C1(CCCN1Cc1ccccc1)c1ccccc1-2` (configuration not stated), the results for the IC50 in experiment [1] and in experiment [2] were 10 µM and 1.3 µM, respectively.

Take `CC(C)(C)OC(=O)N1CCCC12c1ccccc1-c1nc(O)c3nccn3c12` (configuration not stated): the IC50 is > 10 µM in experiment [1] and 0.6 µM in experiment [2].

Consider `CCCC1(N)c2ccccc2-c2nc(O)c3nccn3c21` (configuration not stated), for which the IC50 in experiment [1] is 0.42 µM; in experiment [2], 0.52 µM. The ED50 in experiment [3] (setting [6]) amounted to 80 mg/kg.

With `O=C1CCC2(N1)c1ccccc1-c1nc(O)c3nccn3c12` (configuration not stated), the half-inhibitory concentration (IC50) came out at 1.5 µM in experiment [1] and 1.7 µM in experiment [2].

Consider `CCCCC1(N)c2ccccc2-c2nc(O)c3nccn3c21` (configuration not stated), for which the values for the IC50 in experiment [1] and in experiment [2] were 1.7 µM and 0.3 µM, respectively.

For the compound `CNC(=O)N1CCCC12c1ccccc1-c1nc(O)c3nccn3c12` (configuration not stated), the IC50 in experiment [1] was 4 µM; in experiment [2], 1.7 µM.

Consider `Oc1nc2c(n3ccnc13)C1(CCNC1)c1ccccc1-2` (configuration not stated), for which the IC50 in experiment [1] was found to be 0.2 µM; in experiment [2] it was 0.64 µM. Besides, the ED50 in experiment [3] (setting [6]) is > 80 mg/kg.

`O=C(O)CCC(=O)N1CCCC12c1ccccc1-c1nc(O)c3nccn3c12` (configuration not stated): the 50% inhibitory concentration (IC50) worked out at 0.36 µM in experiment [1] and 10 µM in experiment [2]. The ED50 in experiment [3] (setting [6]) is 10 mg/kg.

Turning to `Oc1nc2c(n3ccnc13)C1(CCCCN1)c1ccccc1-2` (configuration not stated), the IC50 is 0.39 µM in experiment [1] and 1.18 µM in experiment [2]. Further, the ED50 in experiment [3] (setting [6]) stood at 45 mg/kg.

As for `NCC(=O)N1CCCC12c1ccccc1-c1nc(O)c3nccn3c12` (configuration not stated), the 50% inhibitory concentration (IC50) in experiment [1] is 0.83 µM; in experiment [2] it was 2.8 µM. Also, in experiment [3] (setting [6]), the ED50 stood at 70 mg/kg.

As to `CC(=O)N1CCCC12c1ccccc1-c1nc(O)c3nccn3c12` (configuration not stated), the IC50 in experiment [1] stood at 0.61 µM; in experiment [2] it was 0.56 µM.

Take `Oc1nc2c(n3ccnc13)C1(CCCN1)c1ccccc1-2` (configuration not stated): the ED50 in experiment [3] (setting [6]) came out at 80 mg/kg. Further, the IC50 in experiment [2] amounted to 0.28 µM; in experiment [4] it was 0.25 µM.

As for `Oc1nc2c(n3ccnc13)C1(CCNCC1)c1ccccc1-2`, the IC50 in experiment [1] stood at 0.38 µM; in experiment [2], 2 µM.

Turning to `CC1(C)c2ccccc2-c2nc(O)c3nccn3c21`, the IC50 stood at 4.4 µM in experiment [1] and 1 µM in experiment [2].

On to `Oc1nc2c(n3ccnc13)C1(CC1)c1ccccc1-2`, for which the figures for the IC50 in experiment [1] and in experiment [2] were 2.3 µM and 0.6 µM, respectively.

In the case of `O=C(Nc1ccccc1)N1CCCC12c1ccccc1-c1nc(O)c3nccn3c12` (configuration not stated), the concentration for half-maximal inhibition (IC50) in experiment [1] came to 7.1 µM; in experiment [2], 0.13 µM.

On to `Oc1nc2c(n3ccnc13)C1(CCCC1)c1ccccc1-2`, for which the values for the IC50 in experiment [1] and in experiment [2] were 1.6 µM and 1.4 µM, respectively.

`CCN1CCCC12c1ccccc1-c1nc(O)c3nccn3c12` (configuration not stated): the IC50 is 0.62 µM in experiment [1] and 0.53 µM in experiment [2]. For the same compound, the ED50 in experiment [3] (setting [6]) worked out at 54 mg/kg.

As to `O=C(NCc1ccccc1)N1CCCC12c1ccccc1-c1nc(O)c3nccn3c12` (configuration not stated), the IC50 in experiment [1] was 10 µM; in experiment [2] it was 0.9 µM.

With `CCCN1CCCC12c1ccccc1-c1nc(O)c3nccn3c12` (configuration not stated), the IC50 in experiment [1] is 4.3 µM; in experiment [2], 0.47 µM.

Turning to `CN1CCCC12c1ccccc1-c1nc(O)c3nccn3c12` (single isomer, unassigned; (-)), the IC50 worked out at 4.9 µM in experiment [1] and 1.16 µM in experiment [2]. Moreover, the ED50 in experiment [3] was 80 mg/kg.

As to `CN1CCCC12c1ccccc1-c1nc(O)c3nccn3c12` (stereo in doubt; 3e), the IC50 was determined as 0.2 µM in experiment [1] and 0.42 µM in experiment [2]. For the same compound, the ED50 in experiment [3] is 31 mg/kg; in experiment [5] it was 10 mg/kg.

Consider `CN1CCCC12c1ccccc1-c1nc(O)c3nccn3c12` (stereo in doubt; (+)-3e), for which the IC50 came to 0.086 µM in experiment [1] and 0.172 µM in experiment [2]. Further, the ED50 in experiment [3] was found to be 17 mg/kg; in experiment [5] (Mus musculus, iv, read-out: ED50), 7 mg/kg.

As for `O=C(O)[C@@H]1C[C@H]2C[C@@H](CCc3nn[nH]n3)CC[C@H]2CN1` [TEZAMPANEL ANHYDROUS], the figures for the concentration for half-maximal inhibition (IC50) in experiment [1] and in experiment [2] were 0.6 µM and > 10 µM, respectively. In addition, the ED50 in experiment [3] (setting [6]) worked out at 4 mg/kg.

Consider `O=c1[nH]c2cc(-n3ccnc3)c([N+](=O)[O-])cc2[nH]c1=O` [YM-90K], for which the half-maximal inhibitory concentration (IC50) was 0.35 µM in experiment [1] and 10.4 µM in experiment [2]. For the same compound, the ED50 in experiment [3] (setting [6]) was 12 mg/kg.
